We go through three compounds from paper PMC3810934 (Emerging Infectious Diseases, 2013).

Molecules are shown by their SMILES. Where two headings read alike, the source gives them in different places.

The target of test [1] is A/Anhui/1/2013 (E2/S1) virus isolate neuraminidase (Influenza A virus (A/Anhui/1/2013(H7N9)), UniProt A0A024E3Q2). It is filed as biochemical. Particulars: pH 6.5.
Test [2] shares this target. It is filed as biochemical. Particulars: pH 5.1.
The target of test [3] is T1, Oseltamivir-sensitive A/Washington/01/2007 neuraminidase (Influenza A virus (H3N2), UniProt A7UPN3). Nature of the test: biochemical.
The next test relates to A/Shanghai/1/2013 virus. Particulars: cited from earlier work.
In test [4] the target is T2, Oseltamivir-sensitive A/California/12/2012 neuraminidase (Influenza A virus (H1N1pdm09), UniProt R4SI91). It is filed as biochemical. Particulars: pH 6.5.
Test [5] concerns the target T1, Oseltamivir-sensitive A/Washington/01/2007 neuraminidase. It is filed as biochemical. Particulars: pH 6.5.
Test [6] deals with T2, Oseltamivir-sensitive A/California/12/2012 neuraminidase. It is filed as biochemical. Particulars: pH 5.1.

With `CO[C@@H]([C@@H]1OC(C(=O)O)=C[C@H](NC(=N)N)[C@H]1NC(C)=O)[C@H](O)CO` [Laninamivir, laninamivir], the figures for the IC50 in test [1] and in test [2] were 460 pM and 1290 pM, respectively.
Regarding `CC(=O)N[C@H]1[C@H]([C@H](O)[C@H](O)CO)OC(C(=O)O)=C[C@@H]1N=C(N)N` [Zanamivir, zanamivir], the IC50 was 450 pM in test [3], 330 pM in test [1] and 1000 pM in test [2]. The “Susceptibility on the basis of NI assay data” value in the test on A/Shanghai/1/2013 virus is “susceptible”.
On to `CCC(CC)[C@H](NC(C)=O)[C@@H]1[C@H](O)[C@@H](C(=O)O)C[C@H]1N=C(N)N` [Peramivir, peramivir], for which the half-inhibitory concentration (IC50) in test [4] came to 60 pM; in test [5], 80 pM; in test [6] it was 70 pM; in test [3] (pH 5.1, read-out: IC50), 100 pM; in test [1] (read-out: IC50) it was 60 pM; in test [2] (read-out: IC50), 120 pM.

What is called IC50 is the midpoint of a concentration-inhibition curve.
